The values below come from ChEMBL document CHEMBL1137482, “Carbonic anhydrase inhibitors: cloning, characterization, and inhibition studies of the cytosolic isozyme III with sulfonamides” (Bioorg Med Chem, 2007).

As a reminder, the Ki is a dissociation constant, usually derived from enzyme kinetics or from competition with a known ligand. A low value points to higher affinity.

Chain of Carbonic anhydrase 3 (P07451 whole entry): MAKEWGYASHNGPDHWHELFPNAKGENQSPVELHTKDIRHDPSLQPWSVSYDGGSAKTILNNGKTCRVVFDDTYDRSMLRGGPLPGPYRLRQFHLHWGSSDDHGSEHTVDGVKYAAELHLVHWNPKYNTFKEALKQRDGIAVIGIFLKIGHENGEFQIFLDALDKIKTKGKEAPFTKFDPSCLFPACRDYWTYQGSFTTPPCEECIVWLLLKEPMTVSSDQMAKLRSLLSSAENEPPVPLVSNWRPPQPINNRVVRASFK

This assay addresses Carbonic anhydrase 3 (Homo sapiens, UniProt P07451).
As to `Nc1nnc(S(N)(=O)=O)s1`, the affinity, expressed as Ki, was 148 µM. The figure for `Nc1ccc(S(=O)(=O)NCc2ccc(S(N)(=O)=O)cc2)cc1` is 114 µM; for `Nc1ccc(S(=O)(=O)Nc2nnc(S(N)(=O)=O)s2)cc1` it is 18.1 µM; for `Nc1nccc(Nc2ccc(S(N)(=O)=O)cc2)n1` it is 2630 µM. With `Nc1ccccc1S(N)(=O)=O`, the affinity, expressed as Ki, was 887 µM. The figure for `Cn1nc(S(N)(=O)=O)sc1=N` is 198 µM; for `NS(=O)(=O)c1ccc(CCO)cc1` it is 1190 µM. The figure for `Nc1ccc(S(N)(=O)=O)cc1F` is 2070 µM; for `NS(=O)(=O)c1ccc(CO)cc1` it is 4890 µM; for `Nc1ccc(S(N)(=O)=O)cc1Cl` it is 710 µM. `Nc1ccc(S(=O)(=O)NCCc2ccc(S(N)(=O)=O)cc2)cc1` had an inhibitory constant (Ki) of 140 µM.

In turn, `NS(=O)(=O)c1ccc(S(=O)(=O)Nc2cccc3c(Cl)c[nH]c23)cc1` returned a Ki of 10.4 µM. The figure for `CCNC1CN(CCCOC)S(=O)(=O)c2sc(S(N)(=O)=O)cc21` (single isomer, unassigned) [BRINZOLAMIDE] is 110 µM. The figure for `NS(=O)(=O)c1ccc(C(=O)O)cc1` [CARZENIDE] is 11.3 µM; for `Cc1ccc(-c2cc(C(F)(F)F)nn2-c2ccc(S(N)(=O)=O)cc2)cc1` [CELECOXIB] it is 154 µM; for `NS(=O)(=O)c1cc(Cl)c(Cl)c(S(N)(=O)=O)c1` [DICHLORPHENAMIDE] it is 684 µM. Consider `NCc1ccc(S(N)(=O)=O)cc1` [MAFENIDE], for which affinity was put at a Ki of 681 µM. The same measure for `Cc1ccc(S(N)(=O)=O)cc1` [P-TOLUENESULFONAMIDE]: 7.9 µM; for `O=C1NS(=O)(=O)c2ccccc21` [SACCHARIN]: 1000 µM; for `Nc1ccc(S(N)(=O)=O)cc1` [SULFANILAMIDE]: 988 µM. The same measure for `CCN1CCCC1CNC(=O)c1cc(S(N)(=O)=O)ccc1OC` (configuration not stated) [SULPIRIDE]: 10.6 µM.

For `CC1(C)O[C@@H]2[C@@H](CO[C@@]3(COS(N)(=O)=O)OC(C)(C)O[C@@H]23)O1` [TOPIRAMATE], affinity was put at a Ki of 780 µM.
